For data set [1], the system named is HaCaT keratinocyte cell line. Briefly: Cellular uptake into HaCaT keratinocytes, flow cytometry. It is filed as cell-based, human. Particulars: for cellular translocation: 25µM carboxyfluorescein labeled peptide, 1 h, 37°C, medium without FBS, mean of six measurements; for cell uptake in comparison to SSL-25: 1 h incubation at a concentration of 25µM. The method, then:
Cells (20,000 cells per well) were seeded in 24-well plates and allowed to grow in standard growth medium containing Fetal Bovine Serum (FBS) overnight to attain a confluency of 70%. On the following day, the medium was discarded and cells were washed with phosphate buffered saline. Subsequently the peptide was added at a final concentration of 25µM in culture medium without FBS. The cells were incubated with the peptides labeled with carboxyfluorescein at the N-terminus at 37°C, 5% CO2 for 1 h in the dark. Following incubation of the cells with the peptides, the cells were washed three times with phosphate buffered saline. Subsequently, the cells were trypsinized using 0.25% Trypsin-EDTA for 10 min at 37°C, 5% CO2 to allow the protease dependent degradation of adsorbed surface bound peptides and to allow the detachment of cells from the 24-well plate for further analysis.
The cellular uptake of peptides was assessed by flow cytometry. 5000 events per sample were recorded and analyzed in the flow cytometer. A mean of six measurements was plotted with standard deviations being represented by error bars. […] These peptides translocate in HaCaT cells more efficiently as compared to SSL-25 (31%), SSL-9 E5A D9K (28%) and SSL-9 E5K D9K (22%).

Data set [2] can be described thus: Cytotoxicity on HaCaT keratinocytes, MTT assay. To be noted: human. The method, then:
Said cells (7000 cells per well) were seeded in 96-well plate and were allowed to grow overnight in standard growth medium containing FBS. On the next day, the medium was discarded and the cells were washed thrice with phosphate buffered saline and incubated with the peptides at 10µM, 25µM, 50µM and 100µM in culture medium without FBS for 24 h at 37°C, 5% CO2. On the following day the cells were washed again with phosphate buffered saline. MTT reagent was added to cells at a final concentration of 1mg/ml in phosphate buffered saline and incubated for 2-4 h at 37°C, 5% CO2. Addition of MTT to the said cells yielded purple formazan crystals that were dissolved by addition of DMSO and the absorbance was measured at 570 nm.
(In general: Formazan colour is commonly taken as a measure of viable cells.)

Data set [3] in a line: Translocation into lipid vesicles (encapsulated chymotrypsin, Gly-Gln-Phe-Coumarin tag, method of Marks et al.). Particulars: after 10 min, without Zn2+ ions, Figure 4B. The source says: Wimley, Spontaneous Membrane-Translocating Peptides by Orthogonal High-Throughput Screening, J Am Chem Soc, 133 (2011) 8995-9004].
In this method, the sequence Gly-Gln-Phe-Coumarin is C-terminally coupled to the peptides. Chymotrypsin is encapsulated in the vesicles, and this enzyme cuts the peptide between phenylalanine and coumarin. If accordingly labeled peptides penetrate into the vesicles, Chymotrypsin acts and cleaves the Phe-Coumarin bond which sets the coumarin free and causes a bathochromic shift of the fluorescence maximum of about 50 nm. which can be determined fluorimetrically.
Large unilamellar vesicles consisting of POPC / POPG 25:75 (mol:mol) were used in a concentration of 100 µM in buffer without or with 100 µM ZnSO4. […]

For a further data set, the system named is human erythrocytes. Particulars: human erythrocytes 0.25 % hematocrit, 37 °C, 30 minutes, 2-fold dilutions from 1024 µM stock, relative to Triton X-100 lysis.

Ends that are not written are not given here. Peptide text beside a SMILES is read from it. * marks the point of attachment. 5FAM = O=C1OC2(c3ccc(O)cc3Oc3cc(O)ccc32)c2ccc(C(=O)*)cc21

Protocol for human erythrocytes: A concentrated solution of human erythrocytes was adjusted to a hematocrit of 0.5% by repeated washing with buffer solution (172 mM Tris-HCI, pH 7.6) and this diluted solution was equilibrated to 37 °C in a water bath.
The peptides were prepared as a 1024 µM stock solutions in buffer, added to the erythrocytes in sequential 2-fold dilutions and incubated at 37 °C for 30 minutes with occasional shaking.
The cells were centrifuged and the released hemoglobin in the supernatant was quantified using spectrophotometry. The obtained values were set in reference to the value obtained by complete lysis of all cells upon addition of Triton™ X-100.

By viability is commonly meant a per cent measure of how many cells are alive, often set against a control. A low value points to more harm to the cells. Regarding `CC(C)C[C@H](NC(=O)CNC(=O)[C@H](CCCCN)NC(=O)[C@H](CCCCN)NC(=O)[C@H](CC(C)C)NC(=O)[C@H](CC(C)C)NC(=O)[C@H](CO)NC(=O)[C@H](CO)NC(=O)c1ccc2c(c1)C(=O)OC21c2ccc(O)cc2Oc2cc(O)ccc21)C(=O)N[C@@H](C)C(=O)O` [SSL-9 E5K D9A] (5FAM-SSLLKKGLA-OH; N-terminus and C-terminus assumed), in data set [1], the cellular translocation turned out to be 81.7% and the “cell uptake in comparison to SSL-25” value is recorded as “higher cell uptake in comparison to SSL-25”. The viability at 24 h, 100 µM in data set [2] is 70%.

For the compound `CC(C)C[C@H](NC(=O)CNC(=O)[C@H](CCCCN)NC(=O)[C@H](CCC(=O)O)NC(=O)[C@H](CC(C)C)NC(=O)[C@H](CC(C)C)NC(=O)[C@H](CO)NC(=O)[C@H](CO)NC(=O)c1ccc2c(c1)C(=O)OC21c2ccc(O)cc2Oc2cc(O)ccc21)C(=O)N[C@@H](CC(=O)O)C(=O)NCC(=O)N[C@@H](C)C(=O)N[C@@H](CCCCN)C(=O)N[C@@H](CCCCN)C(=O)O` [SSL-13, SSLLEKGLDG AKK] (5FAM-SSLLEKGLDGAKK-OH), in data set [1], the cellular translocation is on record as 48% and the “cell uptake in comparison to SSL-25” value is “higher cell uptake in comparison to SSL-25”. Moreover, the extent of translocation entry in data set [3] was “able to penetrate lipid membranes very efficiently”. In addition, the viability at 24 h, 100 µM in data set [2] worked out at 70%.

For the compound “SSLLEKGLDGAKKAVGGLGKLGKDAVEDLESVGKGAVHDVKDVLDSVL [DCD-1L, SSLLEKGLDGAKKAVGGLGKLGKDAVEDLESVGKGAVHDVKDVLDSVL]”, in the data set on human erythrocytes, the hemolysis result is “no hemolysis”.

For `CC(C)C[C@H](NC(=O)CNC(=O)[C@H](CCCCN)NC(=O)[C@H](CCC(=O)O)NC(=O)[C@H](CC(C)C)NC(=O)[C@H](CC(C)C)NC(=O)[C@H](CO)NC(=O)[C@H](CO)NC(=O)c1ccc2c(c1)C(=O)OC21c2ccc(O)cc2Oc2cc(O)ccc21)C(=O)N[C@@H](CC(=O)O)C(=O)O` [SSL-9, SSLLEKGLD] (5FAM-SSLLEKGLD-OH; N-terminus and C-terminus assumed), in data set [1], the cellular translocation turned out to be 50% and the “cell uptake in comparison to SSL-25” value is “higher cell uptake in comparison to SSL-25”. Besides, the extent of translocation result in data set [3] is “reduced translocation”. Moreover, the viability at 24 h, 100 µM in data set [2] was 70%.

With `CC(C)C[C@H](NC(=O)CNC(=O)[C@H](CCCCN)NC(=O)[C@H](C)NC(=O)[C@H](CC(C)C)NC(=O)[C@H](CC(C)C)NC(=O)[C@H](CO)NC(=O)[C@H](CO)NC(=O)c1ccc2c(c1)C(=O)OC21c2ccc(O)cc2Oc2cc(O)ccc21)C(=O)N[C@@H](CCCCN)C(=O)O` [SSL-9 E5A D9K] (5FAM-SSLLAKGLK-OH; N-terminus and C-terminus assumed), in data set [1], the cellular translocation was found to be 28% and the “cell uptake in comparison to SSL-25” value is “reduced but comparable uptake”. In data set [2] (HaCaT keratinocytes), the viability at 24 h, 100 µM stood at 70%.

As for `CC(C)C[C@H](NC(=O)CNC(=O)[C@H](CCCCN)NC(=O)[C@H](CCC(=O)O)NC(=O)[C@H](CC(C)C)NC(=O)[C@H](CC(C)C)NC(=O)[C@H](CO)NC(=O)[C@H](CO)NC(=O)c1ccc2c(c1)C(=O)OC21c2ccc(O)cc2Oc2cc(O)ccc21)C(=O)N[C@@H](C)C(=O)NCC(=O)N[C@@H](C)C(=O)N[C@@H](CCCCN)C(=O)N[C@@H](CCCCN)C(=O)O` [SSL-13 D9A, SSLLEKGLAG AKK] (5FAM-SSLLEKGLAGAKK-OH; N-terminus and C-terminus assumed), in data set [1], the cellular translocation is recorded as 81.5% and the “cell uptake in comparison to SSL-25” value is reported as “higher cell uptake in comparison to SSL-25”. In data set [2] (HaCaT keratinocytes), this compound gave a viability at 24 h, 100 µM of 70%.

For the compound `CC(C)C[C@H](NC(=O)CNC(=O)[C@H](CCCCN)NC(=O)[C@H](CCC(=O)O)NC(=O)[C@H](CC(C)C)NC(=O)[C@H](CC(C)C)NC(=O)[C@H](CO)NC(=O)[C@H](CO)NC(=O)c1ccc2c(c1)C(=O)OC21c2ccc(O)cc2Oc2cc(O)ccc21)C(=O)N[C@@H](CC(=O)O)C(=O)NCC(=O)N[C@@H](C)C(=O)O` [SSL-11, SSLLEKGLDG A] (5FAM-SSLLEKGLDGA-OH; N-terminus and C-terminus assumed), in data set [1], the cellular translocation was found to be 70% and the “cell uptake in comparison to SSL-25” value is “higher cell uptake in comparison to SSL-25”. Also, the extent of translocation entry in data set [3] was “reduced translocation”. In addition, the viability at 24 h, 100 µM in data set [2] (HaCaT keratinocytes) stood at 70%.

Regarding `CC(C)C[C@H](NC(=O)CNC(=O)[C@H](CCCCN)NC(=O)[C@H](CCCCN)NC(=O)[C@H](CC(C)C)NC(=O)[C@H](CC(C)C)NC(=O)[C@H](CO)NC(=O)[C@H](CO)NC(=O)c1ccc2c(c1)C(=O)OC21c2ccc(O)cc2Oc2cc(O)ccc21)C(=O)N[C@@H](CCCCN)C(=O)O` [SSL-9 E5K D9K] (5FAM-SSLLKKGLK-OH; N-terminus and C-terminus assumed), in data set [1], the cellular translocation is 22% and the “cell uptake in comparison to SSL-25” value was “reduced but comparable uptake”. The compound also yielded a viability at 24 h, 100 µM in data set [2] of 70%.
